These compounds were tested on Spontaneously hypertensive rats (SHR) (assay: Acute Efficacy in Spontaneously Hypertensive Rats (SHR), telemetry blood pressure). Conditions: single oral dose 0.1 mpk P.O.
Assay type: in vivo, rat
Procedure, shortened: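 Male SHR with aortic telemetry catheters, 14-day recovery, conscious and freely moving; single oral gavage in 10% transcutol/20% Cremophor/70% water. BP sampled 30 s every 10 min, hourly averages minus prior-day vehicle baseline; value is maximum peak SBP decrease at stated mg/kg PO dose.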

SMILES	Maximum peak decrease of systolic blood pressure (SBP) in SHR, Category
CC1(C(=O)NC2CC2)C(=O)Nc2nc(-c3nn(CCC(F)(F)C(F)F)c4ncccc34)nc(N)c21 (stereo not shown) [Example 237, 4-amino-N-cyclopropyl-5-methyl-6-oxo-2-[1-(3,3,4,4-tetrafluorobutyl)-1H-pyrazolo[3,4-b]pyridin-3-yl]-6,7-dihydro-5H-pyrrolo[2,3-d]pyrimidine-5-carboxamide]	B (Category B=SBP in SHRs 25-40 mmHg)
CC1(C(=O)NC2CC2)C(=O)Nc2nc(-c3nn(CCC(F)(F)C(F)(F)F)c4ncc(Cl)cc34)nc(N)c21 (stereo not shown) [Example 268, 4-amino-2-[5-chloro-1-(3,3,4,4,4-pentafluorobutyl)-1H-pyrazolo[3,4-b]pyridin-3-yl]-N-cyclopropyl-5-methyl-6-oxo-6,7-dihydro-5H-pyrrolo[2,3-d]pyrimidine-5-carboxamide]	B (Category B=SBP in SHRs 25-40 mmHg)
COc1ccc2c(-c3nc(N)c4c(n3)NC(=O)C4(C)C(=O)NC3CC3)nn(CCC(F)(F)C(F)(F)F)c2n1 (stereo not shown) [Example 178, 4-Amino-N-Cyclopropyl-2-(6-Methoxy-1-(3,3,4,4,4-Pentafluorobutyl)-1H-Pyrazolo[3,4-B]Pyridin-3-yl)-5-Methyl-6-Oxo-6,7-Dihydro-5H-Pyrrolo[2,3-D]Pyrimidine-5-Carboxamide]	A (Category A=SBP in SHRs<25 mmHg)

Same assay, conditions: single oral dose 0.3 mpk P.O.

SMILES	Maximum peak decrease of systolic blood pressure (SBP) in SHR, Category
CC1(NCC2CC2)C(=O)Nc2nc(-c3nn(CCC(F)(F)C(F)(F)F)c4ncccc34)nc(N)c21 (stereo not shown) [Example 174, 4-Amino-5-[(Cyclopropylmethyl)Amino]-5-Methyl-2-[1-(3,3,4,4,4-Pentafluorobutyl)-1H-Pyrazolo[3,4-B]Pyridin-3-yl]-5,7-Dihydro-6H-Pyrrolo[2,3-D]Pyrimidin-6-One]	B (Category B=SBP in SHRs 25-40 mmHg)
CC(C)n1nc(C2(C)C(=O)Nc3nc(-c4nn(CCC(F)(F)C(F)(F)F)c5cc(Cl)ccc45)nc(N)c32)oc1=O (stereo not shown) [Example 171, 4-Amino-2-[6-Chloro-1-(3,3,4,4,4-Pentafluorobutyl)-1H-Indazol-3-yl]-5-Methyl-5-[5-Oxo-4-(Propan-2-yl)-4,5-Dihydro-1,3,4-Oxadiazol-2-yl]-5,7-Dihydro-6H-Pyrrolo[2,3-D]Pyrimidin-6-One]	C (Category C=SBP in SHRs>40 mmHg)
CNc1nc(-c2nn(CCC(F)(F)C(F)(F)F)c3ncccc23)nc2c1C(C)(c1ccccc1)C(=O)N2 (stereo not shown) [Example 186, 5-Methyl-4-(Methylamino)-2-[1-(3,3,4,4,4-Pentafluorobutyl)-1H-Pyrazolo[3,4-B]Pyridin-3-yl]-5-Phenyl-5,7-Dihydro-6H-Pyrrolo[2,3-D]Pyrimidin-6-One]	B (Category B=SBP in SHRs 25-40 mmHg)
CC(C)NC(=O)C1(C)C(=O)Nc2nc(-c3nn(CCC(F)(F)C(F)(F)F)c4ncccc34)nc(N)c21 (stereo not shown) [Example 197, 4-amino-5-methyl-N-(1-methylethyl)-6-oxo-2-[1-(3,3,4,4,4-pentafluorobutyl)-1H-pyrazolo[3,4-b]pyridin-3-yl]-6,7-dihydro-5H-pyrrolo[2,3-d]pyrimidine-5-carboxamide]	B (Category B=SBP in SHRs 25-40 mmHg)
Cn1ccc(NC(=O)C2(C)C(=O)Nc3nc(-c4nn(CCOC(F)(F)F)c5ncccc45)nc(N)c32)n1 (stereo not shown) [Example 210, 4-amino-5-methyl-N-(1-methyl-1H-pyrazol-3-yl)-6-oxo-2-{1-[2-(trifluoromethoxy)ethyl]-1H-pyrazolo[3,4-b]pyridin-3-yl}-6,7-dihydro-5H-pyrrolo[2,3-d]pyrimidine-5-carboxamide]	B (Category B=SBP in SHRs 25-40 mmHg)
CNc1nc(-c2nn(CCC(F)(F)C(F)(F)F)c3cc(Cl)ccc23)nc2c1C(C)(C(=O)NC1CC1)C(=O)N2 (stereo not shown) [Example 257, 2-[6-chloro-1-(3,3,4,4,4-pentafluorobutyl)-1H-indazol-3-yl)-N-cyclopropyl-5-methyl-4-(methylamino)-6-oxo-6,7-dihydro-5H-pyrrolo[2,3-d]pyrimidine-5-carboxamide]	A (Category A=SBP in SHRs<25 mmHg)
CC1(C(=O)NC2COC2)C(=O)Nc2nc(-c3nn(CCC(F)(F)C(F)(F)F)c4ncccc34)nc(N)c21 (stereo not shown) [Example 231, 4-amino-5-methyl-N-oxetan-3-yl-6-oxo-2-[1-(3,3,4,4,4-pentafluorobutyl)-1H-pyrazolo[3,4-b]pyridin-3-yl]-6,7-dihydro-5H-pyrrolo[2,3-d]pyrimidine-5-carboxamide]	C (Category C=SBP in SHRs>40 mmHg)
Cc1nc(C2(C)C(=O)Nc3nc(-c4nn(CCC(F)(F)C(F)(F)F)c5ncccc45)nc(N)c32)sc1C (stereo not shown) [Example 206, 4-amino-5-(4,5-dimethyl-1,3-thiazol-2-yl)-5-methyl-2-[1-(3,3,4,4,4-pentafluorobutyl)-1H-pyrazolo[3,4-b]pyridin-3-yl]-5,7-dihydro-6H-pyrrolo[2,3-d]pyrimidin-6-one]	C (Category C=SBP in SHRs>40 mmHg)
CC1(C(=O)NC2CC2)C(=O)Nc2nc(-c3nc(CCC(F)(F)C(F)(F)F)n4cc(F)ccc34)nc(N)c21 (stereo not shown) [Example 252, 4-amino-H-cyclopropyl-2-[6-fluoro-3-(3,3,4,4,4-pentafluorobutyl)imidazo[1,5-a]pyridin-1-yl]-5-methyl-6-oxo-6,7-dihydro-5H-pyrrolo[2,3-d]pyrimidine-5-carboxamide]	B (Category B=SBP in SHRs 25-40 mmHg)
CCc1nnc(C2(C)C(=O)Nc3nc(-c4nn(CCC(F)(F)C(F)(F)F)c5ncccc45)nc(N)c32)o1 (stereo not shown) [Example 211, 4-amino-5-(5-ethyl-1,3,4-oxadiazol-2-yl)-5-methyl-2-[1-(3,3,4,4,4-pentafluorobutyl)-1H-pyrazolo[3,4-b]pyridin-3-yl]-5,7-dihydro-6H-pyrrolo[2,3-d]pyrimidin-6-one]	C (Category C=SBP in SHRs>40 mmHg)
CC1(CC#N)C(=O)Nc2nc(-c3nn(CCC(F)(F)C(F)(F)F)c4cc(Cl)ccc34)nc(N)c21 (stereo not shown) [Example 175, {4-Amino-2-[6-Chloro-1-(3,3,4,4,4-Pentafluorobutyl)-1H-Indazol-3-yl]-5-Methyl-6-Oxo-6,7-Dihydro-5H-Pyrrolo[2,3-D]Pyrimidin-5-yl}Acetonitrile]	B (Category B=SBP in SHRs 25-40 mmHg)
Cc1nc(C2(C)C(=O)Nc3nc(-c4nn(CCC(F)(F)C(F)(F)F)c5cc(Cl)ccc45)nc(N)c32)sc1C (stereo not shown) [Example 167, 4-Amino-2-[6-Chloro-1-(3,3,4,4,4-Pentafluorobutyl)-1H-Indazol-3-yl]-5-(4,5-Dimethyl-1,3-Thiazol-2-yl)-5-Methyl-5,7-Dihydro-6H-Pyrrolo[2,3-D]Pyrimidin-6-One]	B (Category B=SBP in SHRs 25-40 mmHg)
CNc1nc(-c2nn(CCC(F)(F)F)c3ncccc23)nc2c1C(C)(C(=O)NC1CC1)C(=O)N2 (stereo not shown) [Example 263, N-cyclopropyl-5-methyl-4-(methylamino)-6-oxo-2-[1-(3,3,3-trifluoropropyl)-1H-pyrazolo[3,4-b]pyridin-3-yl]-6,7-dihydro-5H-pyrrolo[2,3-d]pyrimidine-5-carboxamide]	A (Category A=SBP in SHRs<25 mmHg)
CC1(C(=O)NC2CC2)C(=O)Nc2nc(-c3nn(CCC(F)(F)C(F)(F)F)c4ncccc34)nc(N)c21 (stereo not shown) [Example 164, 4-Amino-N-Cyclopropyl-5-Methyl-6-Oxo-2-[1-(3,3,4,4,4-Pentafluorobutyl)-1H-Pyrazolo[3,4-B]Pyridin-3-yl]-6,7-Dihydro-5H-Pyrrolo[2,3-D]Pyrimidine-5-Carboxamide]	C (Category C=SBP in SHRs>40 mmHg)
CC1(C(=O)Nc2ccccn2)C(=O)Nc2nc(-c3nn(CCCC(F)(F)F)c4ncccc34)nc(N)c21 (stereo not shown) [Example 226, 4-amino-5-methyl-6-oxo-N-pyridin-2-yl-2-[1-(4,4,4-trifluorobutyl)-1H-pyrazolo[3,4-b]pyridin-3-yl]-6,7-dihydro-5H-pyrrrolo[2,3-d]pyrimidine-5-carboxamide]	B (Category B=SBP in SHRs 25-40 mmHg)
CC(C)c1nnc(C2(C)C(=O)Nc3nc(-c4nn(CCC(F)(F)C(F)(F)F)c5ncccc45)nc(N)c32)o1 (stereo not shown) [Example 213, 4-amino-5-methyl-5-[5-(1-methylethyl)-1,3,4-oxadiazol-2-yl]-2-[1-(3,3,4,4,4-pentafluorobutyl)-1H-pyrazolo[3,4-b]pyridin-3-yl]-5,7-dihydro-6H-pyrrolo[2,3-d]pyrimidin-6-one]	C (Category C=SBP in SHRs>40 mmHg)
CC1(C(=O)NC2CC2)C(=O)Nc2nc(-c3nn(CCCC(F)(F)F)c4ncccc34)nc(N)c21 (stereo not shown) [Example 222, 4-amino-N-cyclopropyl-5-methyl-6-oxo-2-[1-(4,4,4-trifluorobutyl)-1H-pyrazolo[3,4-b]pyridin-3-yl]-6,7-dihydro-5H-pyrrolo[2,3-d]pyrimidine-5-carboxamide]	C (Category C=SBP in SHRs>40 mmHg)

Same assay, conditions: single oral dose 1 mpk P.O.

SMILES	Maximum peak decrease of systolic blood pressure (SBP) in SHR, Category
Nc1nc(-c2nn(CCC(F)(F)C(F)(F)F)c3ncccc23)nc2c1C(C(=O)NC1CC1)(C1CCCC1)C(=O)N2 (stereo not shown) [Example 243, 4-amino-5-cyclopentyl-N-cyclopropyl-6-oxo-2-[1-(3,3,4,4,4-pentafluorobutyl)-1H-pyrazolo[3,4-b]pyridin-3-yl]-6,7-dihydro-5H-pyrrolo[2,3-d]pyrimidine-5-carboxamide]	B (Category B=SBP in SHRs 25-40 mmHg)
Cc1nc(C2(C)C(=O)Nc3nc(-c4nc(CCCC(F)(F)F)n5cc(Cl)ccc45)nc(N)c32)no1 (stereo not shown) [Example 249, 4-amino-2-[6-chloro-3-(4,4,4-trifluorobutyl)imidazo[1,5-a]pyridin-1-yl]-5-methyl-5-(5-methyl-1,2,4-oxadiazol-3-yl)-5,7-dihydro-6H-pyrrolo[2,3-d]pyrimidin-6-one]	A (Category A=SBP in SHRs<25 mmHg)
